Measurements published in the supplement of paper PMC10307832.

Legend:
Assay in all cases: relative viability (nuclei count vs DMSO), 5 days (fraction); higher = more cells survive
[1] = compound: CC1=CC(=NN1)NC2=CC(=NC(=N2)/C=C/C3=CC=CC=C3)N4CCN(CC4)C + NC(=O)Nc1cc(-c2cccc(F)c2)sc1C(=O)N[C@H]1CCCNC1 [AZD7762] (partner 0.2 µM)
How it was run: (§1)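 One day after seeding in 1536-well plates, lung cancer cell lines were dosed by pin tool. Dosing was either single-drug or a fixed anchor-drug dose plus five library-drug doses (not always all listed) in √10 steps. After 5 days, nuclei were stained in one fix-and-stain step and counted on 4× images, and relative viability is the nuclei count of treated wells over that of vehicle wells, given as the median of duplicate plates.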

[2] = compound: COC1=CC(c2cc3ccccc3[nH]2)=N/C1=C\c1[nH]c(C)cc1C [Obatoclax] + Nc1nc2[nH]cc(CCc3ccc(C(=O)N[C@@H](CCC(=O)O)C(=O)O)cc3)c2c(=O)[nH]1 [Pemetrexed] (partner 0.2 µM)
How it was run: as §1

[3] = compound: CC(C)C[C@H](NC(=O)[C@H](Cc1ccccc1)NC(=O)c1cnccn1)B(O)O [Bortezomib] + CC(=O)c1c(C)c2cnc(Nc3ccc(N4CCNCC4)cn3)nc2n(C2CCCC2)c1=O [Palbociclib] (partner 0.5 µM)
How it was run: as §1

[4] = compound: COC1=CC(c2cc3ccccc3[nH]2)=N/C1=C\c1[nH]c(C)cc1C [Obatoclax] + COc1cc2c(Oc3ccc(NC(=O)C4(C(=O)Nc5ccc(F)cc5)CC4)cc3F)ccnc2cc1OCCCN1CCOCC1 [Foretinib] (partner 0.25 µM)
How it was run: as §1

Row | Cell Line | relative viability ([1]; first compound 0.08 µM) | relative viability ([1]; first compound 0.253 µM) | relative viability ([1]; first compound 0.8 µM) | relative viability ([1]; first compound 2.53 µM) | relative viability ([1]; first compound 8 µM) | relative viability ([2]; first compound 0.01 µM) | relative viability ([2]; first compound 0.03162 µM) | relative viability ([2]; first compound 0.1 µM) | relative viability ([2]; first compound 0.3162 µM) | relative viability ([2]; first compound 1 µM) | relative viability ([3]; first compound 0.0002 µM) | relative viability ([3]; first compound 0.000632 µM) | relative viability ([3]; first compound 0.002 µM) | relative viability ([3]; first compound 0.006325 µM) | relative viability ([3]; first compound 0.02 µM) | relative viability ([4]; first compound 0.01 µM) | relative viability ([4]; first compound 0.03162 µM) | relative viability ([4]; first compound 0.1 µM) | relative viability ([4]; first compound 0.3162 µM) | relative viability ([4]; first compound 1 µM)
1 | NCI-H1648 | 0.578 | 0.691 | 0.663 | 0.626 | 0.513 | 0.758 | 0.746 | 1.06 | 0.64 | 0.782 | 0.208 | 0.296 | 0.258 | 0.261 | 0.275 |  |  |  |  | 
2 | COR-L23 |  |  |  |  |  | 0.193 | 0.188 | 0.197 | 0.203 | 0.182 | 0.308 | 0.274 | 0.183 | 0.0534 | 0.0546 | 0.878 | 1.05 | 0.927 | 0.51 | 0.323
3 | NCI-H1623 |  |  |  |  |  |  |  |  |  |  |  |  |  |  |  | 0.95 | 0.81 | 0.984 | 0.839 | 0.896
4 | NCI-H1299 |  |  |  |  |  |  |  |  |  |  |  |  |  |  |  | 1.08 | 1.12 | 1.08 | 1.08 | 1.05
5 | NCI-H520 |  |  |  |  |  | 0.657 | 0.714 | 0.656 | 0.643 | 0.249 | 0.198 | 0.18 | 0.169 | 0.141 | 0.131 | 0.825 | 0.727 | 0.944 | 0.668 | 0.609
6 | NCI-H522 | 0.859 | 0.934 | 0.933 | 0.516 | 0.587 | 0.955 | 1 | 1.33 | 1.09 | 0.872 | 0.932 | 0.982 | 1.1 | 0.35 | 0.343 |  |  |  |  | 
7 | NCI-H596 | 1.07 | 1.14 | 1.04 | 0.583 | 0.279 | 0.516 | 0.504 | 0.459 | 0.467 | 0.429 |  |  |  |  |  | 0.758 | 0.798 | 0.823 | 0.535 | 0.492
8 | NCI-H1703 | 0.151 | 0.0851 | 0.114 | 0.147 | 0.0896 |  |  |  |  |  |  |  |  |  |  | 0.379 | 0.309 | 0.301 | 0.382 | 0.303
9 | ABC-1 |  | 1.16 | 0.795 | 0.907 | 0.175 |  |  |  |  |  | 0.619 | 0.709 | 0.269 | 0.229 | 0.328 | 1.11 | 1.15 | 1.23 | 1.06 | 0.975
10 | UMC-11 |  |  |  |  |  | 0.768 | 0.808 | 0.82 | 0.795 | 0.433 | 0.3 | 0.334 | 0.294 | 0.295 | 0.214 | 1.07 | 1.08 | 1.05 | 0.716 | 0.382
11 | COR-L 105 |  |  |  |  |  | 1.13 | 1.01 | 1.15 | 1.27 | 0.584 | 0.439 | 0.381 | 0.345 | 0.378 | 0.355 | 1.01 | 1.19 | 1.05 | 0.534 | 0.454
12 | NCI-H2009 |  |  |  |  |  | 0.978 | 1.05 | 0.974 | 0.993 | 0.471 | 0.241 | 0.205 | 0.176 | 0.0661 | 0.0466 | 1.24 | 1.25 | 1.23 | 0.477 | 0.333
